The test system of one experiment is HCT116 (colon). Kind of experiment: In vitro cell proliferation (SRB) assay, HCT116. It counts as cell-based. The settings on record: Homo sapiens, HCT-116; drug equivalent; 96 hours incubation; SRB method. The procedure: (§1) Cancer cell lines to determine the effect of polymer-drug conjugates were obtained from the following sources: Human MDA-MB-231 (breast), HCT116 (colon) and PANC-1 (pancreas), from the American Type Culture Collection (ATCC) (Manassas, Va.). UMRC2 (kidney) from United States National Cancer Institute (Bethesda, Md.). Cells were maintained in Dulbecco's modified Eagle's medium (“DMEM”, Invitrogen) supplemented with 10% FBS, P/S and 10 mM HEPES. All cells were incubated at 37° C. under humidified 5% CO2.
(§2) The growth inhibition assay of polymer-drug conjugates against human cancer cell lines was performed using the Sulforhodamine B (“SRB”) method (Skehan et al., J. National Cancer Institute, 82: 1107-1112 (1990)). […] After 5 minutes agitation in 10 mM Tris solution, the absorbance of each well was measured at 530 nm using Benchmark Plus Microplate reader (Bio-Rad Laboratories, Hercules, Calif.). The absorbance value provides a direct measure of the number of live cells post-treatment with copolymer-drug conjugates.
(§3) To translate the OD530 values into the number of live cells in each well, the OD530 values were compared to those on standard OD530—versus—cell number curves generated for each cell line. The percent survival was calculated using the formula: % Survival=live cell number [test]/live cell number [control]×100
(§4) The IC50 values were calculated by non-linear regression analysis.
(The SRB assay estimates cell density from bound dye.)

For a further experiment, the system named is MDA-MB-231 (breast). Kind of experiment: In vitro cell proliferation (SRB) assay, MDA-MB-231. The class given is cell-based. As to conditions: Homo sapiens, drug equivalent, 96 hours incubation, SRB method. Here is the method:
as §1, §2, §3, §4

The test system of a further experiment is Caki-1. The experiment can be described thus: In vitro cell proliferation (SRB) assay, Caki-1. It counts as cell-based. As to conditions: Homo sapiens, drug equivalent, 96 hours incubation, SRB method.
Experiment [1] deals with glycosylphosphatidylinositol-linked folate receptor (FR). As to conditions: high affinity folate receptor; cited from earlier work.
In the next experiment the target is T1, reduced folate carrier (Homo sapiens, UniProt P41440).
T1 sequence (P41440 1-591): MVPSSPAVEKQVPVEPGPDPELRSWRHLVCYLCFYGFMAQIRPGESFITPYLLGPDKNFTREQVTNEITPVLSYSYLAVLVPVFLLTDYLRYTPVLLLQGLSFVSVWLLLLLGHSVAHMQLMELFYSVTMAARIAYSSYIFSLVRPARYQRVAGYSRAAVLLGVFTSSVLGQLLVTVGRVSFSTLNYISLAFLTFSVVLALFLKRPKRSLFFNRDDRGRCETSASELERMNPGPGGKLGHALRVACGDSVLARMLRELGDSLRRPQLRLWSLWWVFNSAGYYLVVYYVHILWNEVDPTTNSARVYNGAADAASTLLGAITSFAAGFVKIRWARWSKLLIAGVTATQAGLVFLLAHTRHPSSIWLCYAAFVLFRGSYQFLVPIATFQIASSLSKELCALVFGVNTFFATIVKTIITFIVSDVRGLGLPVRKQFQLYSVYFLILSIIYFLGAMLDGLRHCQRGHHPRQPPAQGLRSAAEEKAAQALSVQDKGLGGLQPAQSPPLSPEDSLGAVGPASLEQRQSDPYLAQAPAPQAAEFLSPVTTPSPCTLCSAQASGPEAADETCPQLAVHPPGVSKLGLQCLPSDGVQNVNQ
As to conditions: low affinity reduced folate carrier, cellular uptake; cited from earlier work.

Another experiment deals with mucin-1 (Homo sapiens, UniProt P15941). The settings on record: specific ligand of mucin-1; cited from earlier work.
mucin-1, sequence (P15941 24-1255): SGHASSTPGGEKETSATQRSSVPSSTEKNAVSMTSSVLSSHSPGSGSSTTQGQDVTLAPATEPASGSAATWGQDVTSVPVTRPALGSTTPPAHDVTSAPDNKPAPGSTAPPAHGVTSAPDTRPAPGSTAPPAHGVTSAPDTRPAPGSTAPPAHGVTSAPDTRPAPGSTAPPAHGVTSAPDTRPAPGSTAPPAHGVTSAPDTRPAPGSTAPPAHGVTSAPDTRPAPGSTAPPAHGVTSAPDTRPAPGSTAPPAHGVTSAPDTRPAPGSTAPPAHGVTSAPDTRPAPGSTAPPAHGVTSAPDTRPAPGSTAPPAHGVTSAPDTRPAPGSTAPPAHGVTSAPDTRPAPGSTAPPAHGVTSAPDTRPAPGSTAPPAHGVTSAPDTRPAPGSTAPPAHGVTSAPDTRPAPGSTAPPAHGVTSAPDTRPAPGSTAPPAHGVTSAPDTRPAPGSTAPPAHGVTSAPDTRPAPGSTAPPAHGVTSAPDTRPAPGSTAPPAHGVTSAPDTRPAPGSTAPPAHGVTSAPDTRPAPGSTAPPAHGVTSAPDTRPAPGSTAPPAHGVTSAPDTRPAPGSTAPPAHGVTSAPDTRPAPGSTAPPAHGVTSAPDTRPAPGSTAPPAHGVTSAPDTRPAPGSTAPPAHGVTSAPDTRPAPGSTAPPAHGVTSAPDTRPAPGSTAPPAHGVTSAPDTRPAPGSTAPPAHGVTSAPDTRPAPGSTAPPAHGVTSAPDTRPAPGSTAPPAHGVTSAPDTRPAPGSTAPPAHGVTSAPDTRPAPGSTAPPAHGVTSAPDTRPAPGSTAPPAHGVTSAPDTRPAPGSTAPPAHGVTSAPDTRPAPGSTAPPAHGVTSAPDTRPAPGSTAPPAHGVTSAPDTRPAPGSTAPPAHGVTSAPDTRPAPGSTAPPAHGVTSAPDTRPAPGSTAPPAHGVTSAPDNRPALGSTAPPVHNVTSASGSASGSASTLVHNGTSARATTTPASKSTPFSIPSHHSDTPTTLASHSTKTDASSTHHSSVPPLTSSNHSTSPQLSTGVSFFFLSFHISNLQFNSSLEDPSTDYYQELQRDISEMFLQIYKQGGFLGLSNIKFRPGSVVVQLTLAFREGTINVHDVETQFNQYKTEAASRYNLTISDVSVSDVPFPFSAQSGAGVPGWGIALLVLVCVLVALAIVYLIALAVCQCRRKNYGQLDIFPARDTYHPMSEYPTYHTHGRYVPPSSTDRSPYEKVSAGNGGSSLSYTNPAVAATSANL

As usually defined, the IC50 is the concentration that gives 50% inhibition. `CC(=O)O[C@@]12CO[C@@H]1C[C@H](O)[C@@]1(C)C(=O)[C@H](O)C3=C(C)[C@@H](OC(=O)[C@H](O)[C@@H](NC(=O)OC(C)(C)C)c4ccccc4)C[C@@](O)([C@@H](OC(=O)c4ccccc4)[C@H]21)C3(C)C` [Docetaxel, docetaxel]: the results for the concentration for half-maximal inhibition (IC50) in the experiment on HCT116 (colon), with MDA-MB-231 (breast) and in the experiment with Caki-1 were 0.00058 µM, 0.0015 µM and 0.001 µM, respectively.
As usually defined, the Kd is the equilibrium constant for the complex coming apart. As usually defined, the Km is the concentration of substrate that gives half-maximal velocity. In the case of `Nc1nc2ncc(CNc3ccc(C(=O)N[C@@H](CCC(=O)O)C(=O)O)cc3)nc2c(=O)[nH]1` [folates, Folic acid], the equilibrium dissociation constant (Kd) in experiment [1] was ~0.1 nM. On reduced folate carrier, the Km is ~1 µM.
Regarding YCAREPPTRTFAYWG [EPPT1], the Kd at mucin-1 was 20000 nM.

The values are drawn from US8846110B2, “Polymeric systems for the delivery of anticancer drugs” (Rexahn Pharmaceuticals, Inc., priority 2009, dated 2014).
